Measured values: patent publication US9867809B2, “Encapsulated active ingredients for controlled enteric release” (Kemin Industries, Inc., priority 2015, dated 2018)

Tests used:
[1] = tested on: male Cobb×Cobb 500 broiler chickens; test: Performance trial in broiler chickens; type: in vivo, chicken
Description: A chicken, broiler performance trial was completed to understand if granules with different in-vitro dissolution rates would perform differently in an animal model. […] Therefore two different granules were made, one with a fast dissolution, and one with a slow dissolution. […] The experiment used 72 cages of 10 male Cobb×Cobb 500 broiler chickens. The treatments were replicated in eighteen blocks where the four treatments were randomized within each block. All the treatments contained equal amount of zinc and treatments B, C and D had same amount of butyric acid. The diet given in Tables 5 and 6 was supplemented with the treatments in Table 4. The starter diet was fed day 0 to 14 and the grower diet was fed day 14 to 28. All diets were fed as non-pelleted mash feed. Bird weights and feed consumption by cage were recorded on Days 0, 14, 21, 28.

[2] = Butyric acid in intestinal contents and excreta of broilers by gas chromatography; type: in vivo, chicken; conditions: day 28, birds fed the supplemented diet
Protocol: On days 14 and 28, after weighing, 4 birds per cage were harvested. From each of the harvested birds, a 1 inch section from the beginning of the ileum was cut off and flash frozen. The remaining intestinal tract was cut into 3 sections (upper, middle and cecal), the intestinal contents for each section were pooled by cage, and frozen in liquid nitrogen. A sample of excreta was collected by cage and frozen.
The samples of the feed and intestinal contents were analyzed for butyric acid by gas chromatography.

[3] = after 28 days, supplement in basal diet, 153 ppm zinc

| SMILES | Avg. Wt. [1, 3] | Feed Conversion [1, 3] | Feed Intake [1, 3] | butyric acid in the ileal contents [2] | Avg. Wt. ([1]; in vivo) | Feed Conversion ([1]; in vivo) | Feed Intake ([1]; in vivo) |
| --- | --- | --- | --- | --- | --- | --- | --- |
| CCCC(=O)[O-].CCCC(=O)[O-].[Zn+2] [ZBA Powder, zinc salt of butyric acid in a molar ratio of 1:2] | 1.043 kg | 1.589 | 11.06 | no detectible butyric acid |  |  |  |
| O=S(=O)([O-])[O-].[Zn+2] [Zinc Sulfate Powder, Zinc Sulfate, reference compound] |  |  |  |  | 1.010 kg | 1.620 | 10.93 |
